US7582649B2, “Hydroxy alkyl substituted 1,3,8-triazaspiro[4.5]decan-4-one derivatives useful for the treatment of ORL-1 receptor mediated disorders” (Janssen Pharmaceutica, NV, priority 2002, dated 2009)
pIC50: −log10 of the molar value.

Columns and labels:
mu opioid receptor = mu opioid receptor (Homo sapiens, UniProt P35372); assay: Filtration binding assay: mu opioid receptor
kappa opioid receptor = kappa opioid receptor (Homo sapiens, UniProt P41145); assay: Filtration binding assay: kappa opioid receptor
Sequence of kappa opioid receptor (P41145 whole entry): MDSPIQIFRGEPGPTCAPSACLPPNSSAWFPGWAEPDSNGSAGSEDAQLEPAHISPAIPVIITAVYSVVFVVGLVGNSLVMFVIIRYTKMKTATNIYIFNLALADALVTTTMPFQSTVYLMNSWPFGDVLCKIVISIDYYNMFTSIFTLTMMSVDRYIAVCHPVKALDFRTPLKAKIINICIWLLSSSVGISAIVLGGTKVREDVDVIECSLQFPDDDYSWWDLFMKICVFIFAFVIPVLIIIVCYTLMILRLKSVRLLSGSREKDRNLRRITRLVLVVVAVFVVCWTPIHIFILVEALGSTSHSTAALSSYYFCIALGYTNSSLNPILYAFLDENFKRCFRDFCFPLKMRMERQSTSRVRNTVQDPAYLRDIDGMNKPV

Sequence of mu opioid receptor (P35372 whole entry): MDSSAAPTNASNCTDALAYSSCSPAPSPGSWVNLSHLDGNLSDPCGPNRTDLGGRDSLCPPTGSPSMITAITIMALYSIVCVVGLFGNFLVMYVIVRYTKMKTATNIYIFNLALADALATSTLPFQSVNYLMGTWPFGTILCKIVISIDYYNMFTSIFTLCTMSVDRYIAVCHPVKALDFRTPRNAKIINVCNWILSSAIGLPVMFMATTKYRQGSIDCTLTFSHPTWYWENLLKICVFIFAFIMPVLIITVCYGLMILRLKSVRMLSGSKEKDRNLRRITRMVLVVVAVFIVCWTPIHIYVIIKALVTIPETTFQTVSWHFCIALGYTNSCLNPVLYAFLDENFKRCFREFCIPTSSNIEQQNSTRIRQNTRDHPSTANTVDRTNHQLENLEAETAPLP

| SMILES | pIC50 (mu opioid receptor) | pIC50 (kappa opioid receptor) |
| --- | --- | --- |
| O=C1N(C[C@@H](O)CNc2ccc(Br)cn2)CN(c2ccc(F)cc2)C12CCN(CC1CCCCCCC1)CC2 [compound 13] | 6.21 | 6.92 |
| COc1ccccc1CNC[C@H](O)CN1CN(c2ccc(F)cc2)C2(CCN(CC3CCCCCCC3)CC2)C1=O [compound 14] | 5.92 | 6.40 |
| O=C1N(C[C@@H](O)CNCc2ccc(Br)cc2)CN(c2ccc(F)cc2)C12CCN(CC1CCCCCCC1)CC2 [compound 15] | 6.07 | 6.48 |
| COc1ccc(CNC[C@H](O)CN2CN(c3ccc(F)cc3)C3(CCN(CC4CCCCCCC4)CC3)C2=O)cc1OC [compound 22] | 6.22 | 6.52 |
| O=C1N(C[C@@H](O)CNCc2ccc([N+](=O)[O-])cc2)CN(c2ccc(F)cc2)C12CCN(CC1CCCCCCC1)CC2 [compound 23] | 5.04 | 6.31 |
| O=C1N(C[C@@H](O)CNCCc2cccs2)CN(c2ccc(F)cc2)C12CCN(CC1CCCCCCC1)CC2 [compound 26] | 6.10 | 6.54 |
| O=C1N(C[C@@H](O)CNCc2ccc(Cl)cc2Cl)CN(c2ccc(F)cc2)C12CCN(CC1CCCCCCC1)CC2 [compound 31] | 5.53 | 6.55 |
| O=C1N(C[C@@H](O)CN(CCc2ccccc2)Cc2ccccc2)CN(c2ccc(F)cc2)C12CCN(CC1CCCCCCC1)CC2 [compound 65] | 6.24 | 6.29 |
| CCOc1ccccc1NC[C@H](O)CN1CN(c2ccc(F)cc2)C2(CCN(CC3CCCCCCC3)CC2)C1=O [compound 281] | 6.24 | 6.02 |
| O=C1N(C[C@@H](O)CNc2ccc(C3CCCCC3)cc2)CN(c2ccc(F)cc2)C12CCN(CC1CCCCCCC1)CC2 [compound 285] | 5.32 | 5.57 |
| O=C1N(C[C@@H](O)CN(Cc2ccccc2)C[C@@H]2CCC[C@@H]2O)CN(c2ccc(F)cc2)C12CCN(CC1CCCCCCC1)CC2 [compound 289] | 5.86 | 6.72 |
| O=C1N(C[C@@H](O)CN(Cc2ccccc2)C[C@@H]2CCCCC[C@@H]2O)CN(c2ccc(F)cc2)C12CCN(CC1CCCCCCC1)CC2 [compound 291] | 5.34 | 6.24 |
| COc1ccc(CCNC[C@H](O)CN2CN(c3ccc(F)cc3)C3(CCN(Cc4cccc5cccc(C)c45)CC3)C2=O)cc1OC [compound 386] | < 5.00 | 5.43 |
| Cc1cccc2cccc(CN3CCC4(CC3)C(=O)N(C[C@H](O)CN(Cc3ccccc3)C(C)(C)C)CN4c3ccc(F)cc3)c12 [compound 389] | 5.15 | 5.01 |
| COc1ccc(CCN(C)C[C@@H](O)CN2CN(c3ccc(F)cc3)C3(CCN(Cc4cccc5cccc(C)c45)CC3)C2=O)cc1OC [compound 391] | < 5.00 | 5.66 |
| COc1ccc(CNC[C@@H](O)CN2CN(c3ccc(F)cc3)C3(CCN(Cc4cccc5cccc(C)c45)CC3)C2=O)cc1 [compound 392] | < 5.00 | 5.86 |
| Cc1cccc2cccc(CN3CCC4(CC3)C(=O)N(C[C@H](O)CNc3ccncc3)CN4c3ccc(F)cc3)c12 [compound 393] | < 5.00 | 5.98 |
| Cc1cccc2cccc(CN3CCC4(CC3)C(=O)N(C[C@@H](O)CN(Cc3ccccc3)C(C)(C)C)CN4c3ccc(F)cc3)c12 [compound 395] | 5.96 | < 5.00 |
| Cc1cccc2cccc(CN3CCC4(CC3)C(=O)N(C[C@@H](O)CNCCN3CCOCC3)CN4c3ccc(F)cc3)c12 [compound 396] | < 5.00 | 6.09 |

| SMILES | pIC50 (mu opioid receptor) | pIC50 (kappa opioid receptor) |
| --- | --- | --- |
| COc1ccc(CCN(C)C[C@H](O)CN2CN(c3ccc(F)cc3)C3(CCN(Cc4cccc5cccc(C)c45)CC3)C2=O)cc1OC [compound 399] | < 5.00 | 6.12 |
| O=C(O)c1ccc(CNC[C@H](O)CN2CN(c3ccc(F)cc3)C3(CCN(CC4CCCCCCC4)CC3)C2=O)cc1 [compound 452] | 6.24 | 5.82 |
| CCCCNC[C@H](O)CN1CN(c2ccc(F)cc2)C2(CCN(CC3CCCCCCC3)CC2)C1=O [compound 454] | 6.29 | 6.92 |
| CSc1cccc(C(=O)N(Cc2ccc(C)cc2)C[C@H](O)CN2CN(c3ccc(F)cc3)C3(CCN(CC4CCCCCCC4)CC3)C2=O)n1 [compound 455] | 5.29 | 6.42 |
| COc1ccc(CCN(C)C[C@H](O)CN2CN(c3ccc(F)cc3)C3(CCN(Cc4c(Cl)cccc4C(F)(F)F)CC3)C2=O)cc1OC [compound 457] | < 5.00 | 5.03 |
| O=C1N(C[C@@H](O)CNc2ccccc2)CN(c2ccc(F)cc2)C12CCN(Cc1c(Cl)cccc1C(F)(F)F)CC2 [compound 458] | < 5.00 | 5.84 |
| CN(C)CCN(Cc1ccccc1)C[C@H](O)CN1CN(c2ccc(F)cc2)C2(CCN(Cc3c(Cl)cccc3C(F)(F)F)CC2)C1=O [compound 459] | < 5.00 | 5.49 |
| COC(=O)C(N)CSC[C@H](O)CN1CN(c2ccc(F)cc2)C2(CCN(CC3CCCCCCC3)CC2)C1=O (stereo partly shown) [compound 460] | 6.05 | 6.08 |
| Cc1cccc2cccc(CN3CCC4(CC3)C(=O)N(C[C@@H](O)CO)CN4c3ccc(F)cc3)c12 [compound 554] | < 5.00 | 5.02 |
| O=C1N(C[C@@H](O)CNc2ccncc2)CN(c2ccc(F)cc2)C12CCN(Cc1cc(C(F)(F)F)cc(C(F)(F)F)c1)CC2 [compound 608] | ≤ 5.00 | ≤ 5.00 |
| O=C1N(C[C@@H](O)CNCc2cccnc2)CN(c2ccc(F)cc2)C12CCN(Cc1cc(C(F)(F)F)cc(C(F)(F)F)c1)CC2 [compound 609] | ≤ 5.00 | ≤ 5.00 |
| CCOC(=O)CN(Cc1ccccc1)C[C@H](O)CN1CN(c2ccc(F)cc2)C2(CCN(Cc3cc(C(F)(F)F)cc(C(F)(F)F)c3)CC2)C1=O [compound 670] | ≤ 5.00 | ≤ 5.00 |
| CCCCN(Cc1ccccc1)C[C@H](O)CN1CN(c2ccc(F)cc2)C2(CCN(Cc3cc(C(F)(F)F)cc(C(F)(F)F)c3)CC2)C1=O [compound 671] | ≤ 5.00 | ≤ 5.00 |
| CC(c1ccccc1)N(Cc1ccccc1)C[C@H](O)CN1CN(c2ccc(F)cc2)C2(CCN(Cc3cc(C(F)(F)F)cc(C(F)(F)F)c3)CC2)C1=O (stereo partly shown) [compound 672] | ≤ 5.00 | ≤ 5.00 |
| COc1ccc(CCN(C)C[C@H](O)CN2CN(c3ccc(F)cc3)C3(CCN(Cc4cc(C(F)(F)F)cc(C(F)(F)F)c4)CC3)C2=O)cc1OC [compound 673] | ≤ 5.00 | ≤ 5.00 |
| CN(C)CCN(Cc1ccccc1)C[C@H](O)CN1CN(c2ccc(F)cc2)C2(CCN(Cc3cc(C(F)(F)F)cc(C(F)(F)F)c3)CC2)C1=O [compound 674] | ≤ 5.00 | ≤ 5.00 |
| O=C1N(C[C@@H](O)CN2CCc3ccccc3C2)CN(c2ccc(F)cc2)C12CCN(Cc1cc(C(F)(F)F)cc(C(F)(F)F)c1)CC2 [compound 682] | ≤ 5.00 | ≤ 5.00 |
| O=C1N(C[C@@H](O)CN2CCN(c3cccc(C(F)(F)F)c3)CC2)CN(c2ccc(F)cc2)C12CCN(Cc1cc(C(F)(F)F)cc(C(F)(F)F)c1)CC2 [compound 683] | ≤ 5.00 | ≤ 5.00 |
| CCN(CC)C(=O)C1CCCN(C[C@H](O)CN2CN(c3ccc(F)cc3)C3(CCN(Cc4cc(C(F)(F)F)cc(C(F)(F)F)c4)CC3)C2=O)C1 (stereo partly shown) [compound 686] | ≤ 5.00 | 5.60 |
